Results from US20250082781A1, “METHODS OF LOWERING BLOOD GLUCOSE AND TREATING TYPE 2 DIABETES BY ACTIVATION OF PDE4D3” (Salk Institute for Biological Studies, priority 2021, published 2025).

Assays:
[1] = test system: perilipin-HSL co-localization; assay: Perilipin-GFP and HSL-mCherry co-localization in 3T3-L1 adipocytes; format: cell-based
Experimental: 3T3-L1 cells were transduced with viral particles ([…]) in 24 well plates. Media was replaced after overnight incubation. 3-4 days after AAV infection, cells were treated as described for lipolysis assay. For cAMP analysis by biosensors, Downward Green cADDis cAMP Sensor (D0200G) and control mNeon Green (F0500G) produced in BacMam system was purchased from Montana Molecular. Brightfield and fluorescence images were taken every 10-20 min in I IncuCyte® Live-cell analysis system (Sartorius) and images were analyzed by IncuCyte® Analysis Software. High-resolution live cell imaging was performed with LSM 880 Airyscan microscope at 40× objective.

[2] = test system: oleic acid turnover; assay: 3H-labeled oleic acid turnover (in vivo lipolysis); design: species or system mouse
Experimental: FIGS. 1A-1I: FGF1 suppresses adipose lipolysis. (FIG. 1A) Ex-vivo lipolysis in gonadal white adipose tissue (gWAT) explants from wildtype (F1WT) and FGF1 KO (FIKO) mice 6 h after refeeding. Data are represented as mean±SEM (n=4, *p<0.05). (FIG. 1B) Lipolysis in mouse SVF-derived adipocytes measured by the cumulative release of free fatty acids (FFAs) into the media over 4 h. Cells were pretreated with vehicle (PBS) or FGF1 (100 ng/ml) for 10 min prior to the induction of lipolysis with 1 nM isoproterenol (ISO). Data are represented as mean±SEM (n=3, *p<0.05, **p<0.01). (FIG. 1C) Dose response of FGF1-induced suppression of lipolysis in 3T3-L1 adipocytes. Cells were pretreated with the indicated doses of FGF1 for 10 min prior to the induction of lipolysis with 100 nM isoproterenol (ISO), and the cumulative release of FFAs over 4 h was measured. Data are represented as mean±SEM (n=3, **p<0.01, ***p<0.001). […] Plasma radioactivity was measured by scintillation counting and normalized to t=1 min. Fractional oleic acid turnover rate was calculated by linear regression of natural log transformed data (adR1WT vehicle n=5, FGF1 n=4; adR1KO vehicle n=4, FGF1 n=5). […] Quantification of pHSL-S660 normalized to total HSL is shown in the right panel. […] Quantification of pHSL-S660 normalized to total HSL (right panel). […]

[3] = test system: hepatic gluconeogenic intermediates; assay: Hepatic metabolite levels (targeted metabolomics, kits); format: in vivo, mouse
Experimental: Polar metabolites were extracted and analyzed using a previously reported method (Yuan et al., 2012). Briefly, ob/ob mice were sacrificed by cervical dislocation. Liver pieces (50-100 mg) were snap frozen in liquid nitrogen. 1 ml LC-MS grade 80% methanol chilled at −80° C. was added per 100 mg tissue on dry ice. Samples were homogenized by TissueLyzer and lysates were incubated on dry ice for 30 minutes and centrifuged at 20000 g for 10 minutes. Clarified supernatants were transferred to new tubes. Pellets were extracted again and supernatants were combined. After drying the supernatant under nitrogen gas, extracts were dissolved in H2O (40 μL) and 10 μL were subjected to liquid chromatography mass spectrometry (LC-MS). Polar metabolites were measured by LC-MS using a TSQ Quantiva instrument fitted with a Luna NH2 HPLC column (5.0 μm; 4.6 mm×50 mm, Phenomenex). The following LC solvents were used: buffer A, 95:5 H2O/ACN, 20 mM ammonium hydroxide, 20 mM ammonium acetate; buffer B, 100% ACN. A typical LC run was 23 minutes long with a flow rate of 0.4 ml min-1 and consisted of the following steps: 85 to 30% buffer B over 3 minutes, 30 to 2% buffer B over 9 minutes, 2% buffer B for 3 minutes, 2 to 85% buffer B over 1 minute, and 85% buffer B for 7 minutes. MS analyses were performed using electrospray ionization (ESI) in negative or positive ion mode depending on the metabolites being analyzed. Negative mode and positive mode source parameters were the following: spray voltage 3.5 kV, ion transfer tube temperature of 325° C., and a vaporizer temperature of 275° C.
Liver samples were prepared from HFD-fed mice as described in Pcx activity assay. After determining Pcx activity from sample homogenates, the remaining supernatant was de-proteinated by perchloric acid (PCA)-KOH method using a commercial kit. De-proteinated samples were used to quantify hepatic metabolites using the commercial kits. Hepatic metabolites concentration was normalized to protein concentration and corrected for the loss of volume due to de-proteinization.

[4] = livers of ob/ob mice 2 h after FGF1 injection

## FGF1: Recombinant fibroblast growth factor 1 protein, dissolved in PBS, injected subcutaneously
[1]; FGF1 100 ng/ml pretreatment, ISO 100 nM
  isoproterenol-induced co-localization of perilipin-GFP and HSL-mCherry: reduced the isoproterenol-induced co-localization of perilipin-GFP and HSL-mCherry
[1]; roflumilast 2 μM, PDE3 inhibition did not abrogate
  FGF1 effect on perilipin-HSL co-localization under PDE4 inhibition: abrogated the FGF1 effect
[2]; adR1KO mice, FGF1 pretreatment
  oleic acid turnover: not affected
[2]; adR1WT mice, FGF1 0.5 mg/kg s.c. 6 h before infusion
  fractional turnover rate of oleic acid: reduced
[3]; HFD-fed adR1KO mice, 6 h after FGF1 0.5 mg/kg
  hepatic gluconeogenic substrates: insensitive to FGF1 treatment
[3]; HFD-fed adR1WT mice, 6 h after FGF1 0.5 mg/kg
  reductions in hepatic gluconeogenic substrates: largely recapitulated
[3]; [4]
  hepatic TCA cycle metabolites: not affected
  hepatic acetyl-CoA levels: decreased
  hepatic intermediates downstream of pyruvate (G6P, F6P, PG, PEP, OAA): reduced
